Data taken from patent US11667643B2, “RIP1K inhibitors” (priority 2020, dated 2023).

Legend:
[1] = biological target: RIPK1 (Homo sapiens (Human), UniProt Q13546); test: biochemical; format: biochemical; conditions: RIPK1 enzyme 31 ng/well, 30° C. for 30 minutes, luminescence; read-out: RIPK1 ADP-Glo Kinase (IC50)
In short: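 ADP-Glo luminescent assay of RIPK1 at 31 ng/well in Tris-HCl pH 7.4 buffer with MgCl2, BSA, 100 μM DTT and 4 mM MnCl2; compounds run in duplicate. Kinase reaction 30 min at 30 °C, then ADP-Glo 40 min and detection reagent 30 min at room temperature; ADP formation read as luminescence.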

[2] = test system: U937 cells; test: U937 cell necroptosis assay (TNFa + zVAD, CellTiter-Glo recovery), functional human RIP1 assay; format: cell-based; conditions: Homo sapiens, U-937, 18 h, read-out: U937 Zvad TNF CTG Recovery, U937, TNFa + zVAD (IC50), U937 cells, zVAD-fmk, TNFa 2 ng/mL, 18 hours, CellTiter-Glo
In short: (§1)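 Human U937 cells (50K/well, 60 uM zVAD-fmk in plating medium) and murine L929 cells (10K/well, medium replaced with 40 uM zVAD-fmk) were pre-incubated with compound 1 h at 37 °C. TNFa was then added at a final 2 ng/mL. Viability by CellTiter-Glo luminescence after 18 h.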

[3] = test system: L929 cells; test: L929 cell necroptosis assay (TNFa + zVAD, CellTiter-Glo recovery), functional murine RIP1 assay; format: cell-based; conditions: Mus musculus, L929, 18 h, read-out: L929-CTG-recovery, L929, TNFa + zVAD (IC50), L929 cells, zVAD-fmk, TNFa 2 ng/mL, 18 hours, CellTiter-Glo
In short: as §1

RIPK1, sequence (Q13546 whole entry, species assumed): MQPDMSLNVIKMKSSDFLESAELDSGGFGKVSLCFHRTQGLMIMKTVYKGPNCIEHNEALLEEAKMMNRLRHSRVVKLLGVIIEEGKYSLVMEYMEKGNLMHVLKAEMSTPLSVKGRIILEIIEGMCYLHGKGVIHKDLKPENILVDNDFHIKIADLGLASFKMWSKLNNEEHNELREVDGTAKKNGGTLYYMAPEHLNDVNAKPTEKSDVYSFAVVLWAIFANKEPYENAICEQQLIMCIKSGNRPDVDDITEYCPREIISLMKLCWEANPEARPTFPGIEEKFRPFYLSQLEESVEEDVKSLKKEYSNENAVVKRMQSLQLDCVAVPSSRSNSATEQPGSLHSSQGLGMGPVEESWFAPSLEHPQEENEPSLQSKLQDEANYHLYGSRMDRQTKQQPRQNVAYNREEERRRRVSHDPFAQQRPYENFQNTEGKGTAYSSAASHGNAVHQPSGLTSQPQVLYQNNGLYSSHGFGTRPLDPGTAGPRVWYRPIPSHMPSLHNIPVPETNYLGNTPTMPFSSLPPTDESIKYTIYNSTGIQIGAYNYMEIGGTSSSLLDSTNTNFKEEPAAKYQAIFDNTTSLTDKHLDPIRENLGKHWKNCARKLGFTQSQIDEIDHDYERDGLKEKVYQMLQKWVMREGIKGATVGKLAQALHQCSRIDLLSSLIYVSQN

| SMILES | IC50 [1] [µM] | IC50 [2] [µM] | IC50 [3] [µM] |
| --- | --- | --- | --- |
| O=C(N[C@H]1COc2ccc(N3CC4(CCOCC4)C3)cc2-n2ccnc21)c1cc(Oc2ccccc2)ccn1 [Compound I-88, (R)—N-(9-(7-Oxa-2-azaspiro[3.5]nonan-2-yl)-4,5-dihydrobenzo[b]imidazo[1,2-d][1,4]oxazepin-4-yl)-4-phenoxypicolinamide] | 0.112 | 0.163 | 10000 |
| O=C(N[C@H]1COc2ccc(C#Cc3ccccn3)cc2-n2ccnc21)c1n[nH]c(Cc2ccccc2)n1 [Compound I-89, (R)-5-Benzyl-N-(9-(pyridin-2-ylethynyl)-4,5-dihydrobenzo[b]imidazo[1,2-d][1,4]oxazepin-4-yl)-1H-1,2,4-triazole-3-carboxamide] | 0.108 | 0.0352 | 7.93 |
